Where two headings read alike, the source gives them in different places.
Key:
[1] = system: Key Broadleaf Weed and Crop Species; assay: Post-emergent Test II herbicidal activity (Table 5); format: in vivo; conditions: post-emergence, 336 h, post-emergent, 14 days after application; for pest or weed control at 70 g/ha: 70 g ai/ha; for pest or weed control at 140 g/ha: 140 g ai/ha
In short: (§1)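 Greenhouse post-emergent assay: seedlings (first/second true leaf) in Metro-Mix 360 were sprayed at 187 L/ha at a top rate plus twofold dilutions down to 1/16×; solvent-blank controls were included. Percent visual injury was read at 14 d.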

[2] = system: Key Grass and Sedge Weeds as well as Grass Crops; assay: Post-emergent Test II herbicidal activity (Table 6); format: in vivo; conditions: post-emergence, 336 h; for pest or weed control at 70 g/ha: application rate 70 g ai/ha; for pest or weed control at 140 g/ha: application rate 140 g ai/ha
In short: as §1

[3] = ABUTH: velvetleaf (Abutilon theophrasti), read-out: Visual Growth Reduction (%) 14 Days After Application ABUTH
[4] = AMARE: redroot pigweed (Amaranthus retroflexus), read-out: Visual Growth Reduction (%) 14 Days After Application AMARE
[5] = BRSNN: oilseed-rape, canola (Brassica napus), read-out: Visual Growth Reduction (%) 14 Days After Application BRSNN
[6] = CHEAL: lambsquarters (Chenopodium album), read-out: Visual Growth Reduction (%) 14 Days After Application CHEAL
[7] = EPHHL: wild poinsettia (Euphorbia heterophylla), read-out: Visual Growth Reduction (%) 14 Days After Application EPHHL
[8] = HELAN: sunflower (Helianthus annuus), read-out: Visual Growth Reduction (%) 14 Days After Application HELAN
[9] = VIOTR: wild pansy (Viola tricolor), read-out: Visual Growth Reduction (%) 14 Days After Application VIOTR
[10] = CYPES: yellow nutsedge (Cyperus esculentus), read-out: Visual Growth Reduction (%) 14 Days After Application, CYPES
[11] = DIGSA: crabgrass (Digitaria sanguinalis), read-out: Visual Growth Reduction (%) 14 Days After Application, DIGSA
[12] = ECHCG: barnyardgrass (Echinochloa crus-galli), read-out: Visual Growth Reduction (%) 14 Days After Application, ECHCG
[13] = ORYSA: rice (Oryza sativa), read-out: Visual Growth Reduction (%) 14 Days After Application, ORYSA
[14] = SETFA: giant foxtail (Setaria faberi), read-out: Visual Growth Reduction (%) 14 Days After Application, SETFA
[15] = SORVU: grain sorghum (Sorghum vulgare), read-out: Visual Growth Reduction (%) 14 Days After Application, SORVU
[16] = TRZSS (wheat, Triticum aestivum), read-out: Visual Growth Reduction (%) 14 Days After Application, TRZSS
[17] = ZEAMX: maize, corn (Zea mays), read-out: Visual Growth Reduction (%) 14 Days After Application, ZEAMX

SMILES: Nc1cc(-c2c(F)cc(Br)c(F)c2F)nc(C(=O)O)c1Cl [Compound 162, 4-amino-6-(4-bromo-2,3,6-trifluorophenyl)-3-chloropicolinic acid]
- pest or weed control at 70 g/ha [1, 3]: 85 to 94%
- pest or weed control at 140 g/ha [1, 3]: 85 to 94%
- pest or weed control at 70 g/ha [1, 4]: 95 to 100%
- pest or weed control at 140 g/ha [1, 4]: 95 to 100%
- pest or weed control at 70 g/ha [1, 5]: 95 to 100%
- pest or weed control at 140 g/ha [1, 5]: 95 to 100%
- pest or weed control at 70 g/ha [1, 6]: 95 to 100%
- pest or weed control at 140 g/ha [1, 6]: 95 to 100%
- pest or weed control at 70 g/ha [1, 7]: 95 to 100%
- pest or weed control at 140 g/ha [1, 7]: 95 to 100%
- pest or weed control at 70 g/ha [1, 8]: 85 to 94%
- pest or weed control at 140 g/ha [1, 8]: 85 to 94%
- pest or weed control at 70 g/ha [1, 9]: 95 to 100%
- pest or weed control at 140 g/ha [1, 9]: 95 to 100%
- pest or weed control at 70 g/ha [2, 10]: 95 to 100%
- pest or weed control at 140 g/ha [2, 10]: 45 to 59%
- pest or weed control at 70 g/ha [2, 11]: 75 to 84%
- pest or weed control at 140 g/ha [2, 11]: 75 to 84%
- pest or weed control at 70 g/ha [2, 12]: 85 to 94%
- pest or weed control at 140 g/ha [2, 12]: 75 to 84%
- pest or weed control at 70 g/ha [2, 13]: 45 to 59%
- pest or weed control at 140 g/ha [2, 13]: 45 to 59%
- pest or weed control at 70 g/ha [2, 14]: 85 to 94%
- pest or weed control at 140 g/ha [2, 14]: 75 to 84%
- pest or weed control at 70 g/ha [2, 15]: 85 to 94%
- pest or weed control at 140 g/ha [2, 15]: 95 to 100%
- pest or weed control at 70 g/ha [2, 16]: 45 to 59%
- pest or weed control at 140 g/ha [2, 16]: 45 to 59%
- pest or weed control at 70 g/ha [2, 17]: 60 to 74%
- pest or weed control at 140 g/ha [2, 17]: 75 to 84%
